# In PubChem BioAssay (NCI):
#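 All cell lines were grown in 96-well plates and treated with compound for 48 hours. TGI denotes the concentration required for complete inhibition of growth.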
# Columns and labels:
# Test in all cases: inhibition of tumour cell growth, NCI panel, 48 h
# SNB-19 CNS = test system: SNB-19 CNS
# OVCAR-3 ovarian = test system: OVCAR-3 ovarian
# UACC-62 melanoma = test system: UACC-62 melanoma
# KM12 colon = test system: KM12 colon
# HCC-2998 colon = test system: HCC-2998 colon
# EKVX NSCLC = test system: EKVX NSCLC
# OVCAR-5 ovarian = test system: OVCAR-5 ovarian
# M14 melanoma = test system: M14 melanoma
# HOP-62 NSCLC = test system: HOP-62 NSCLC
# U251 CNS = test system: U251 CNS
# HCT-15 colon = test system: HCT-15 colon
# MDA-N = test system: MDA-N
# T-47D breast = test system: T-47D breast
# SF-295 CNS = test system: SF-295 CNS
# COLO 205 colon = test system: COLO 205 colon
# OVCAR-4 ovarian = test system: OVCAR-4 ovarian
# MOLT-4 leukemia = test system: MOLT-4 leukemia
# CAKI-1 renal = test system: CAKI-1 renal
# ACHN renal = test system: ACHN renal
# TK-10 renal = test system: TK-10 renal
# NCI-H522 lung = test system: NCI-H522 lung
# NCI-H460 lung = test system: NCI-H460 lung
# SK-MEL-28 melanoma = test system: SK-MEL-28 melanoma
# SF-539 CNS = test system: SF-539 CNS
# DU-145 prostate = test system: DU-145 prostate
# BT-549 breast = test system: BT-549 breast
# SF-268 CNS = test system: SF-268 CNS
# SK-MEL-5 melanoma = test system: SK-MEL-5 melanoma
# MDA-MB-231 breast = test system: MDA-MB-231 breast
# OVCAR-8 ovarian = test system: OVCAR-8 ovarian
# RPMI-8226 leukemia = test system: RPMI-8226 leukemia
# MALME-3M melanoma = test system: MALME-3M melanoma
# NCI-H23 lung = test system: NCI-H23 lung
# IGROV1 ovarian = test system: IGROV1 ovarian
# PC-3 prostate = test system: PC-3 prostate
# HT29 colon = test system: HT29 colon
# HL-60(TB) leukemia = test system: HL-60(TB) leukemia
# NCI-H226 lung = test system: NCI-H226 lung
# HS 578T breast = test system: HS 578T breast
# CCRF-CEM leukemia = test system: CCRF-CEM leukemia
# 786-0 renal = test system: 786-0 renal
# RXF 393 renal = test system: RXF 393 renal
# SN12C renal = test system: SN12C renal
# MDA-MB-435 = test system: MDA-MB-435
# HCT-116 colon = test system: HCT-116 colon
# SK-OV-3 ovarian = test system: SK-OV-3 ovarian
# SW-620 colon = test system: SW-620 colon
# LOX IMVI melanoma = test system: LOX IMVI melanoma
# A498 renal = test system: A498 renal
# MCF7 breast = test system: MCF7 breast
# UO-31 renal = test system: UO-31 renal
# NCI/ADR-RES ovarian = test system: NCI/ADR-RES ovarian
# K-562 leukemia = test system: K-562 leukemia
# A549 NSCLC = test system: A549 NSCLC
# UACC-257 melanoma = test system: UACC-257 melanoma
# SK-MEL-2 melanoma = test system: SK-MEL-2 melanoma
# HOP-92 NSCLC = test system: HOP-92 NSCLC
compound,measurement,setting,value
Nc1ncnc2nc(N3CCN(CCO)CC3)[nH]c12,TGI,SNB-19 CNS,> 100 µM
same,TGI,OVCAR-3 ovarian,> 100 µM
same,TGI,UACC-62 melanoma,> 100 µM
same,TGI,KM12 colon,> 100 µM
same,TGI,HCC-2998 colon,> 100 µM
same,TGI,EKVX NSCLC,> 100 µM
same,TGI,OVCAR-5 ovarian,> 100 µM
same,TGI,M14 melanoma,> 100 µM
same,TGI,HOP-62 NSCLC,> 100 µM
same,TGI,U251 CNS,> 100 µM
same,TGI,HCT-15 colon,> 100 µM
same,TGI,MDA-N,> 100 µM
same,TGI,T-47D breast,> 100 µM
same,TGI,SF-295 CNS,> 100 µM
same,TGI,COLO 205 colon,> 100 µM
same,TGI,OVCAR-4 ovarian,> 100 µM
same,TGI,MOLT-4 leukemia,> 100 µM
same,TGI,CAKI-1 renal,> 100 µM
same,TGI,ACHN renal,> 100 µM
same,TGI,TK-10 renal,> 100 µM
same,TGI,NCI-H522 lung,> 100 µM
same,TGI,NCI-H460 lung,> 100 µM
same,TGI,SK-MEL-28 melanoma,> 100 µM
same,TGI,SF-539 CNS,> 100 µM
same,TGI,DU-145 prostate,> 100 µM
same,TGI,BT-549 breast,> 100 µM
same,TGI,SF-268 CNS,> 100 µM
same,TGI,SK-MEL-5 melanoma,> 100 µM
same,TGI,MDA-MB-231 breast,> 100 µM
same,TGI,OVCAR-8 ovarian,> 100 µM
same,TGI,RPMI-8226 leukemia,> 100 µM
same,TGI,MALME-3M melanoma,> 100 µM
same,TGI,NCI-H23 lung,> 100 µM
same,TGI,IGROV1 ovarian,> 100 µM
same,TGI,PC-3 prostate,> 100 µM
same,TGI,HT29 colon,> 100 µM
same,TGI,HL-60(TB) leukemia,> 100 µM
same,TGI,NCI-H226 lung,> 100 µM
same,TGI,HS 578T breast,> 100 µM
same,TGI,CCRF-CEM leukemia,> 100 µM
same,TGI,786-0 renal,> 100 µM
same,TGI,RXF 393 renal,> 100 µM
same,TGI,SN12C renal,> 100 µM
same,TGI,MDA-MB-435,> 100 µM
same,TGI,HCT-116 colon,> 100 µM
same,TGI,SK-OV-3 ovarian,> 100 µM
same,TGI,SW-620 colon,> 100 µM
same,TGI,LOX IMVI melanoma,> 100 µM
same,TGI,A498 renal,> 100 µM
same,TGI,MCF7 breast,> 100 µM
same,TGI,UO-31 renal,> 100 µM
same,TGI,NCI/ADR-RES ovarian,> 100 µM
same,TGI,K-562 leukemia,> 100 µM
same,TGI,A549 NSCLC,> 100 µM
same,TGI,UACC-257 melanoma,> 100 µM
same,TGI,SK-MEL-2 melanoma,> 100 µM
CC(C)(C)OC(=O)NCC(c1c[nH]c2ccc(Br)cc12)c1c[nH]c2ccc(Br)cc12,TGI,SNB-19 CNS,23.3 µM
same,TGI,OVCAR-3 ovarian,17.2 µM
same,TGI,UACC-62 melanoma,23.1 µM
same,TGI,KM12 colon,19.4 µM
same,TGI,HCC-2998 colon,18 µM
same,TGI,EKVX NSCLC,15.2 µM
same,TGI,OVCAR-5 ovarian,20.2 µM
same,TGI,M14 melanoma,12.6 µM
same,TGI,HOP-62 NSCLC,27.3 µM
same,TGI,U251 CNS,19.1 µM
same,TGI,HCT-15 colon,20.8 µM
same,TGI,MDA-N,21.2 µM
same,TGI,T-47D breast,32.9 µM
same,TGI,SF-295 CNS,21.9 µM
same,TGI,COLO 205 colon,16.2 µM
same,TGI,OVCAR-4 ovarian,25.9 µM
same,TGI,CAKI-1 renal,24.5 µM
same,TGI,ACHN renal,18.1 µM
same,TGI,TK-10 renal,25.2 µM
same,TGI,NCI-H522 lung,25.2 µM
same,TGI,SK-MEL-28 melanoma,34.9 µM
same,TGI,SF-539 CNS,27.8 µM
same,TGI,DU-145 prostate,27.7 µM
same,TGI,BT-549 breast,24.8 µM
same,TGI,SF-268 CNS,25.6 µM
same,TGI,SK-MEL-5 melanoma,19 µM
same,TGI,MDA-MB-231 breast,32.1 µM
same,TGI,OVCAR-8 ovarian,45.6 µM
same,TGI,RPMI-8226 leukemia,> 100 µM
same,TGI,MALME-3M melanoma,33.3 µM
same,TGI,NCI-H23 lung,14.5 µM
same,TGI,IGROV1 ovarian,17.3 µM
same,TGI,PC-3 prostate,11.8 µM
same,TGI,HT29 colon,12.2 µM
same,TGI,HL-60(TB) leukemia,37.1 µM
same,TGI,NCI-H226 lung,36.7 µM
same,TGI,HS 578T breast,47.7 µM
same,TGI,CCRF-CEM leukemia,71.1 µM
same,TGI,786-0 renal,13.2 µM
same,TGI,RXF 393 renal,25.7 µM
same,TGI,SN12C renal,18.1 µM
same,TGI,MDA-MB-435,28.7 µM
same,TGI,HOP-92 NSCLC,19.4 µM
same,TGI,HCT-116 colon,13.8 µM
same,TGI,SW-620 colon,24.9 µM
same,TGI,LOX IMVI melanoma,22.7 µM
same,TGI,A498 renal,29.1 µM
same,TGI,MCF7 breast,22 µM
same,TGI,UO-31 renal,19.6 µM
same,TGI,NCI/ADR-RES ovarian,23.1 µM
same,TGI,K-562 leukemia,> 100 µM
same,TGI,A549 NSCLC,17.2 µM
same,TGI,UACC-257 melanoma,25.6 µM
same,TGI,SK-MEL-2 melanoma,22.3 µM
